{"source": "paper PMC2423185", "about": "(BMC Biochemistry, 2008)", "target": "T1, H. pylori arginase (RocF) (Helicobacter pylori, UniProt O25949)", "T1 construct": "gene HP_1399", "T1 sequence (O25949 entry or part of it)": "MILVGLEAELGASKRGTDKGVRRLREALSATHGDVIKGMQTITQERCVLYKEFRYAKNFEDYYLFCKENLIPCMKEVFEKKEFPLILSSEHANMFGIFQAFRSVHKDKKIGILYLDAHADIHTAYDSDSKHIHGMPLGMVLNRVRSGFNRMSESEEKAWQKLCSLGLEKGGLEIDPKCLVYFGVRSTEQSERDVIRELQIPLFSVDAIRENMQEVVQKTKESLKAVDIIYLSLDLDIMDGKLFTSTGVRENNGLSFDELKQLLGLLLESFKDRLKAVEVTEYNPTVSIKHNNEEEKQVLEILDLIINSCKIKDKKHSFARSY", "data": [{"smiles": "N=C(N)NCCC[C@H](N)C(=O)O", "note": "[L-arginine]", "values": [{"measurement": "L-ornithine formation by acidified ninhydrin, 515 nm", "result": "With E. coli (pBS-rocF), optimal arginase activity was with cobalt"}]}]}
